Patent US20050090527A1, “Combination of H1, H3 and H4 receptor antagonists for treatment of allergic and non-allergic pulmonary inflammation, congestion and allergic rhinitis” (Schering Corporation, priority 2003, published 2005)
Read-outs that look alike come from different tables or passages of the source.

Legend:
[1] = molecular target: T1, human H4 (H4-HEK293 cells) (Homo sapiens, UniProt Q9H3N8); assay: Membrane binding assay, [3H]-histamine, for H4 binding
T1 construct: expressed in transfected cells
Description: (§1) In the present example, the affinities of several compounds for the H1, H3 and H4 receptors was determined by a membrane binding assay.
(§2) Materials. Rat and guinea-pig brains were obtained frozen from Rockland Immunochemicals (Gilbertsville, Pa.). Cell lines expressing recombinant human receptors were generated by using standard transfection techniques. The following radioligands were obtained from Dupont NEN (Boston, Mass.): [^3H]-pyrilamine, 23 Ci/mmol, for H1 binding; [^3H]-N′-methylhistamine, 82 Ci/mmol, for H3 binding and [^3H]-histamine, 20 Ci/mmol, for H4 binding.
(§3) Methods. Recombinant cell lines (i.e., human H1-CHO cells, human H3-HEK293 and human H4-HEK293 cells) were cultured in Dulbecco's modified Eagle's medium/10% fetal bovine serum supplemented with 2 mM glutamine, penicillin (100 U/ml), and streptomycin (100 μg/ml) in a humidified 5% CO2 atmosphere at 37° C. Selection was maintained with 0.5 mg geneticin/ml. Cells were harvested for membrane preparation by aspirating media, replacing it with Hanks' balanced salt solution/5 mM EDTA, and incubating flasks for 10 minutes at 37° C. Cells were pelleted by centrifugation at 1000×g for ten minutes at 4° C.
(§4) Membrane preparation. Membranes were prepared by disrupting cells or tissue in at least ten volumes of ice-cold 50 mM Tris-HCl, pH 7.5 at 25° C., with a Polytron. homogenates were centrifuged ten minutes at 1000×g and the supernatants were then centrifuged for ten minutes at 50,000×g. Pellets from this centrifugation step were resuspended with a Polytron, a sample was taken for protein determination (BCA; Pierce; Rockford, Ill.), and the resuspension was again centrifuged at 50,000×g. Brain membranes were stored as pellets, cell membranes as suspensions of 1 mg protein/ml Tris buffer at −20° C.
(§5) Binding assays. […] Assay mixtures were incubated for 30 minutes at 30° C. in polypropylene, 96-well, deep-well plates then filtered through 0.3% polyethylenimine-soaked GF/B filters. These were washed three times with 1.2 ml of Tris buffer, dried in a microwave oven, impregnated with Meltilex wax scintillant and counted at 40% efficiency in a Betaplate scintillation counter (Wallac). IC50 values were determined by interpolation or by nonlinear, least-squares, curve-fitting with the Prism program (GraphPad Software). Ki values were determined in the manner of Cheng and Prusoff (Cheng, et al., (1973) Biochem. Pharm. 22:3099-3108).

[2] = molecular target: T2, human H3 (H3-HEK293 cells) (Homo sapiens, UniProt Q9Y5N1); assay: Membrane binding assay, [3H]-N-methylhistamine, for H3 binding; conditions: concentration not given
T2 construct: expressed in transfected cells
Description: Materials. Rat and guinea-pig brains were obtained frozen from Rockland Immunochemicals (Gilbertsville, Pa.). Cell lines expressing recombinant human receptors were generated by using standard transfection techniques.
Methods. […] Selection was maintained with 0.5 mg geneticin/ml. Cells were harvested for membrane preparation by aspirating media, replacing it with Hanks' balanced salt solution/5 mM EDTA, and incubating flasks for 10 minutes at 37° C. Cells were pelleted by centrifugation at 1000×g for ten minutes at 4° C.
Membrane preparation. […] Pellets from this centrifugation step were resuspended with a Polytron, a sample was taken for protein determination (BCA; Pierce; Rockford, Ill.), and the resuspension was again centrifuged at 50,000×g. Brain membranes were stored as pellets, cell membranes as suspensions of 1 mg protein/ml Tris buffer at −20° C.
as §5, with “Software).” for “Software). Ki values were determined in the manner of Cheng and Prusoff (Cheng, et al., (1973) Biochem. Pharm. 22:3099-3108).”

[3] = molecular target: T3, human H1 (H1-CHO cells) (Homo sapiens, UniProt P35367); assay: Membrane binding assay, [3H]-pyrilamine, for H1 binding; conditions: for H1 Ki, value given in %: concentration not given
T3 construct: expressed in transfected cells
Description: as §1, §2, §3, §4, §5

[4] = test system: LPS-induced inflammatory response in rat airways; assay: BAL cells recovered from LPS-challenged rats (pulmonary inflammation); assay type: in vivo; conditions: for % Inhibition of neutrophilic cellular influx into BAL in response to LPS challenge / % Inhibition of total cellular influx into BAL in response to LPS challenge: 10 mg/kg orally five hours before intratracheal LPS; for Cells (neutrophils or total cells) counted in BAL of LPS-challenged rats compared with rats treated with a blank: oral dosing five hours before LPS
Description: Male Sprague-Dawley rats (250-300 g) were anesthetized by inhalation of isoflurane (flow rate 1 ml/min; supplemented with O2). Using a Penn-Centry microspray needle, 0.1 ml of a 100-μg/ml LPS solution in saline was injected into the trachea. Animals not challenged with the LPS solution received 0.1 ml of saline. Animals were placed on a heat pad until they recovered from anesthesia. Afterward, they were returned to their cages and allowed food and water ad libitum. All animals survived these manipulations and no additional interventions were required to ensure their survival. Animals fasted overnight were orally dosed with either the standard PD4 inhibitor and positive-control, SB207499 (c4-cyano-4-(3-cyclopentyloxy-4-methoxy-phenyl)-r-1-cyclohexanecarboxylic acid; Barnette, et al., (1998) J. Pharm. Exp. Ther. 284: 420-426), the compound of formula 17 or vehicle as a negative-control (0.4% methylcellulose) five hours before the LPS challenge.
At appropriate time points after intratracheal challenge with LPS, animals were surgically prepared with a tracheal cannula. Surgery was performed under anesthesia. The airways were flushed with 2×2 ml of 0.9% saline and the two washings pooled. Lavage fluid was centrifuged (350 g, 4° C., 7 minutes), supernatant aspirated, erythrocytes lysed, and pellet washed in phosphate-buffered saline containing 10% heat-inactivated fetal calf serum and 10 μg/ml DNase I. The cell suspension was centrifuged, supernatant aspirated, and pellet resuspended in the same buffer. Total cell counts were performed using a Nebauer hemacytometer. Differential cell counts were conducted on Cytospin-prepared slides stained with Fisher's Leukostat stain. At least 200 cells were assessed per slide and standard morphological criteria were used to define neutrophilic cells.
The total number of cells and the number of neutrophils in the broncheoalveolar lavage (BAL) recovered from rats treated with the compound of formula 17, SB207499 or a blank were counted and compared. Fewer cells (i.e., neutrophils or total cells) were counted in the BAL of LPS-challenged rats treated with the compound of formula 17 or with SB207499 than that of rats treated with a blank. […] The data from these experiments is set forth below in Tables 6 and 7.

[5] = molecular target: T4, human histamine H4 receptor (SP9144) (Homo sapiens, UniProt Q9H3N8); assay: Competition binding versus [3H]-histamine on membranes of SP9144-transfected HEK293 cells
T4 construct: expressed in transfected cells; host or cells: HEK293
Description: Membrane preparation. Forty-eight hours after transfection with plasmid containing the sequence for SP9144, HEK293 cells were harvested from T150 flasks by incubating 5 minutes in 5 ml of 5 mM EDTA/Hanks' balanced salt solution followed by repeated pipeting. They were centrifuged 5 minutes at 1000×g. The EDTA/PBS was decanted and an equal volume of ice-cold 50 mM Tris-HCl, pH 7.5, was added and cells were broken up with a Polytron (PT10 tip, setting 5, 30 seconds). Nuclei and unbroken cells were sedimented at 1000×g for 10 minutes and then the supernatant was centrifuged at 50,000×g for 10 minutes. The supernatant was decanted, the pellet was resuspended by Polytron, a sample was taken for protein assay (bicinchoninic acid, Pierce; Rockford, Ill.), and the tissue was again centrifuged at 50,000×g. Pellets were stored frozen at −20° C.
Binding assay. […] Samples were filtered on GF/B filters and washed thrice with 2 ml of cold Tris buffer. Filters were dried in a microwave oven, impregnated with Meltilex wax scintillant, and counted at 45% efficiency.
Competition binding assays.
Curves were fit to the data with Prism (GraphPad Software) nonlinear least-squares curve-fitting program and Ki values were derived from IC50 values according to Cheng and Prusoff (Cheng, et al., (1973) Biochem. Pharm. 22:3099-3108).

[6] = membrane binding, [3H]-histamine, read-out: H4 Ki
[7] = 18 nM [3H]-histamine, cells printed in μM

T3 sequence (P35367 whole entry): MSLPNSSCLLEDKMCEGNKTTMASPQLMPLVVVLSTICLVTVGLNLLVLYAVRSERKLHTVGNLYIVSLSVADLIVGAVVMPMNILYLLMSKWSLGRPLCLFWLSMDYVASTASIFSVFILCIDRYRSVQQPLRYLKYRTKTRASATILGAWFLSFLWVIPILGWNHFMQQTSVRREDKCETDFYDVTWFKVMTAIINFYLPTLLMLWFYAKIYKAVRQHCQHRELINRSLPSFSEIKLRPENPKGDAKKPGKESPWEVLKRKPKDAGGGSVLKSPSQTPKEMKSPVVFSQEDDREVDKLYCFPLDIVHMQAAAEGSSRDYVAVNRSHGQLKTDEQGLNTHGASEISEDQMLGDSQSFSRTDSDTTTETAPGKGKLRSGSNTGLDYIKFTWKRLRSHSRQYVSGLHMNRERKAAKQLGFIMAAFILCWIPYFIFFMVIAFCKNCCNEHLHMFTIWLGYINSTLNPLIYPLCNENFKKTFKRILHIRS
T4 sequence (Q9H3N8 whole entry): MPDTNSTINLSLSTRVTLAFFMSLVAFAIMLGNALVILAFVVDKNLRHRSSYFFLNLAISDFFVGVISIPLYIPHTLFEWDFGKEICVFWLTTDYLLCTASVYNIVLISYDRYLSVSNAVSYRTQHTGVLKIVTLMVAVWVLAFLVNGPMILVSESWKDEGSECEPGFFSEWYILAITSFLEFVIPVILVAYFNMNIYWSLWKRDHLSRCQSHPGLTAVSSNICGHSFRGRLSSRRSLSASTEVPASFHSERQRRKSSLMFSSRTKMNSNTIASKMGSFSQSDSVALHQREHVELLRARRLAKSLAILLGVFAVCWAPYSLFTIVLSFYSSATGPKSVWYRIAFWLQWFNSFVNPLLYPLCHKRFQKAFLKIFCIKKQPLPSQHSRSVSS
T1 sequence (Q9H3N8 whole entry): as above
T2 sequence (Q9Y5N1 whole entry): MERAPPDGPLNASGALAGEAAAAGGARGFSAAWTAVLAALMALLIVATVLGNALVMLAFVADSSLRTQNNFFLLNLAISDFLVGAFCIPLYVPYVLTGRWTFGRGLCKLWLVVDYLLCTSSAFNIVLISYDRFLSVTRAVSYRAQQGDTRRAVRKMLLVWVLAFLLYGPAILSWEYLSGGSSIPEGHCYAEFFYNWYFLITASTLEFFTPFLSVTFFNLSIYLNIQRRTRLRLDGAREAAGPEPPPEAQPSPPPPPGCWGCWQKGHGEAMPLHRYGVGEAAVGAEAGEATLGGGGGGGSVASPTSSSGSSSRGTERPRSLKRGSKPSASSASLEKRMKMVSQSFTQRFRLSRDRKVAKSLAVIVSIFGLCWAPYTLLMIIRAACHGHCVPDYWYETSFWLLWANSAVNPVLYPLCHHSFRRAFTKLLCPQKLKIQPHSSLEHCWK

## C/C(=C\C(=O)Nc1ccc(Cl)cc1)c1ccc(Cc2c[nH]cn2)cc1 [Formula 33]
[1]; [6]
  Ki: 870 nM

## CC(C)(C(=O)O)c1ccc(C(=O)CCCN2CCC(OC(c3ccccc3)c3ccccc3)CC2)cc1 [Formula 36]
[2]
  H3 Ki column, value given in %: 1%
[3]; membrane binding, [3H]-pyrilamine
  Ki: 15 nM
[1]; concentration not given
  H4 Ki column, value given in %: 2%

## O=C(c1cnc2ccccc2c1)N1CCC(Cc2c[nH]cn2)CC1 [Formula 19]
[4]
  % Inhibition of neutrophilic cellular influx into BAL in response to LPS challenge: 71.6%
  % Inhibition of total cellular influx into BAL in response to LPS challenge: 64.5%
[3]
  H1 Ki, value given in %: 0%
[1]; [6]
  Ki: 38 nM

## O=C(/C=C/c1ccc(Cc2c[nH]cn2)cc1)NCCc1ccc(Cl)cc1 [Formula 35]
[3]
  H1 Ki, value given in %: 0%
[1]; [6]
  Ki: 1100 nM

## CNCCc1c[nH]cn1 [N^α-methylhistamine]
[5]
  Ki: 0.063 ± 0.002 µM

## COc1ccc([C@]2(C#N)CC[C@@H](C(=O)O)CC2)cc1OC1CCCC1 [SB207499, c4-cyano-4-(3-cyclopentyloxy-4-methoxy-phenyl)-r-1-cyclohexanecarboxylic acid, reference compound]
[4]
  % Inhibition of neutrophilic cellular influx into BAL in response to LPS challenge: 68.7%
  % Inhibition of total cellular influx into BAL in response to LPS challenge: 61.2%
  Cells (neutrophils or total cells) counted in BAL of LPS-challenged rats compared with rats treated with a blank: Fewer cells

## CN/C(=N/CCSCc1nc[nH]c1C)NC#N [Cimetidine]
[5]; [7]
  Ki: > 10 µM

## c1ccc2c(c1)C1CC(CNCCCCc3c[nH]cn3)C2c2ccccc21 (stereo not shown) [Formula 29]
[1]; [6]
  Ki: 440 nM

## O=C(NCc1ccc(Cc2c[nH]cn2)cc1)Nc1cc(Cl)cc(Cl)c1 [Formula 26]
[3]
  H1 Ki, value given in %: 0%
[1]; [6]
  Ki: 320 nM

## O=C(CCN1CCC(Cc2c[nH]cn2)CC1)Nc1cccc(Cl)c1 [Formula 22]
[1]; [6]
  Ki: 92 nM

## Clc1ccc(C(=C2CCN(CCCCCc3c[nH]cn3)CC2)c2ccccn2)cc1 [Formula 31]
[1]; [6]
  Ki: 770 nM

## CN(C)CCCSC(=N)N [Dimaprit]
[5]; read-out: Ki ± SEM versus [3H]histamine binding to SP9144-transfected HEK293 cells, 18 nM [3H]-histamine, 70 μg membrane protein, Ki from IC50 by Cheng and Prusoff
  Ki: 0.38 ± 0.07 µM

## CC(C)(C)c1ccc(S(=O)(=O)NCCCCc2c[nH]cn2)cc1 [Formula 32]
[3]
  H1 Ki, value given in %: 32%
[1]; [6]
  Ki: 850 nM

## c1nc(CC2CCN(CCCOc3ccc(CN4CCCCC4)cc3)CC2)c[nH]1 [Formula 24]
[1]; [6]
  Ki: 290 nM

## Nc1ncc(CN2CCC(F)(C(=O)N3CCC(n4c(-c5ccccn5)nc5cccnc54)CC3)CC2)cn1 [Formula 17]
[4]
  Cells (neutrophils or total cells) counted in BAL of LPS-challenged rats compared with rats treated with a blank: Fewer cells

## Clc1ccc(C(CCNCCCCc2c[nH]cn2)c2ccccn2)cc1 (stereo not shown) [Formula 30]
[1]; [6]
  Ki: 480 nM

## C[C@H](N)Cc1c[nH]cn1 [(S)-α-methylhistamine]
[5]
  Ki: 3.4 ± 0.3 µM

## CN(C)CCC(c1ccc(Cl)cc1)c1ccccn1 (stereo not shown) [Chlorpheniramine]
[5]; [7]
  Ki: > 10 µM

## O=C(NCCCCc1c[nH]cn1)C1(c2ccc(Cl)cc2)CCC1 [Formula 34]
[3]
  H1 Ki, value given in %: 48%
[1]; [6]
  Ki: 1100 nM

## N=C(N)SCCc1cnc[nH]1 [Imetit]
[5]
  Ki: 0.0031 ± 0.0007 µM

## NC(=NCc1ccc(Cl)cc1)SCCCc1cnc[nH]1 [Clobenpropit]
[5]
  Ki: 0.0072 ± 0.0005 µM

## O=S(=O)(c1ccc(Cl)cc1)N1CCC(CCc2c[nH]cn2)C1 (stereo not shown) [Formula 23]
[1]; [6]
  Ki: 205 nM

## O=C(c1ccccn1)N1CCC(Cc2c[nH]cn2)CC1 [Formula 20]
[1]; [6]
  Ki: 38 nM

## C[C@@H](N)Cc1c[nH]cn1 [(R)-α-methylhistamine]
[5]
  Ki: 0.14 ± 0.01 µM

## CN1CCC(N(C)Cc2ccc(OCCCN3CCC(Cc4c[nH]cn4)CC3)cc2)CC1 [Formula 27]
[1]; [6]
  Ki: 325 nM

## Clc1ccc(C(=C2CCN(CCCCc3c[nH]cn3)CC2)c2ccccn2)cc1 [Formula 28]
[1]; [6]
  Ki: 390 nM

## O=C(CCN1CCC(Cc2c[nH]cn2)CC1)NCCc1ccc(Cl)cc1 [Formula 25]
[1]; [6]
  Ki: 300 nM

## NC(=NCc1ccc(Cl)cc1)SCCCc1cnc[nH]1 [Formula 18]
[1]
  Ki: 34 nM

## CC(C)(C)CCC#C[C@@H]1C[C@H]1c1c[nH]cn1 [Formula 21]
[1]; [6]
  Ki: 90 nM
